Laboratory results published in patent publication US20230040402A1, “ANTITUMOR DRUG FOR USE IN COMBINATION WITH IMMUNE CHECKPOINT INHIBITOR” (NIPPON SHINYAKU CO., LTD., priority 2019, published 2023).

What was measured:
[1] = test system: mouse colorectal cancer cell line CT26; test: Test Example 3: mPGES-1 inhibitor and anti-mouse PD-1 antibody in combination in allograft model of mouse colorectal cancer cell line CT26; assay type: in vivo; settings: female BALB/c mouse, tumor volume on 21st day
From the text: (§1) On the day of transplantation, after the culture supernatant was removed, CT26 was washed with HBSS and collected. Collected CT26 was suspended in HBSS and used as cells for transplantation.
Under anesthesia, 3.0x10^5 cells for transplantation were subcutaneously transplanted into the right-hand side abdomen of each female BALB/c mouse.
The anti-mouse PD-1 antibody was intraperitoneally administered to the mice of the single therapy group of the anti-mouse PD-1 antibody and the combination therapy group, at a dosage of 100 µg/individual, twice a week after transplantation, from the 7th day of transplantation to the 20th day of transplantation.
Regarding the tumor volume (mm^3), the length and width of a tumor were measured by using an electronic caliper, and the tumor volume was calculated by the following formula.

[2] = test system: mouse colorectal cancer cell line CT26; test: Test Example 4: mPGES-1 inhibitor and anti-mouse CTLA-4 antibody in combination in allograft model of mouse colorectal cancer cell line CT26; assay type: in vivo; settings: female BALB/c mouse
From the text: as §1
Under anesthesia, 3.0×10^5 cells for transplantation were subcutaneously transplanted into the right-hand side abdomen of each female BALB/c mouse.
The anti-mouse CTLA-4 antibody was intraperitoneally administered to the mice of the single therapy group with the anti-mouse CTLA-4 antibody and the combination group, at a dosage of 100 µg/individual, twice a week after transplantation, from the 8th day of transplantation to the 20th day of transplantation.
Regarding the tumor volume (mm^3), the length and width of a tumor were measured by using an electronic caliper, and the tumor volume was calculated by the following formula

[3] = in combination with anti-mouse PD-1 antibody (100 µg/individual i.p. twice a week), compound 100 mg/kg orally twice a day, 7th to 20th day
[4] = used solely, 100 mg/kg (as free form) orally twice a day, 7th to 20th day of transplantation
[5] = in combination with anti-mouse CTLA-4 antibody (100 µg/individual i.p. twice a week), compound 100 mg/kg orally twice a day, 8th to 20th day
[6] = used solely, 100 mg/kg (as free substance) orally twice a day, 8th to 20th day of transplantation

| Compound | tumor growth (tumor volume) [1, 3] | tumor growth (tumor volume) [1, 4] | tumor growth (tumor volume) [2, 5] | tumor growth (tumor volume) [2, 6] |
| --- | --- | --- | --- | --- |
| COCc1nc2c(C(=O)Nc3cccc(Cl)c3C)cc(NC(=O)c3ccccc3C(F)(F)F)cc2[nH]1.Cc1ccc(S(=O)(=O)O)cc1 [compound 1, N-(3-chloro-2-methylphenyl)-2-(methoxymethyl)-6-({[2-(trifluoromethyl)phenyl]carbonyl}amino)-1H-benzimidazole-4-carboxamide 4-methylbenzenesulfonate] | tumor growth was suppressed | did not suppress tumor growth | tumor growth was suppressed | did not suppress tumor growth |
| Cc1c(Cl)cccc1NC(=O)c1cc(NC(=O)c2ccccc2C(F)(F)F)cc2[nH]c(C3(C(F)(F)F)CC3)nc12 [compound 2, N-(3-chloro-2-methylphenyl)-2-[1-(trifluoromethyl)cyclopropyl]-6-({[2-(trifluoromethyl)phenyl]carbonyl}amino)-1H-benzimidazole-4-carboxamide] | tumor growth was suppressed | did not suppress tumor growth | tumor growth was suppressed | did not suppress tumor growth |
